Reference: patent publication US7521527B2 (Societe de Conseils de Recherches et d'Applications …, priority 2003, dated 2009)
≈ marks a conversion by molar mass, not a printed value. Where a SMILES comes first, the peptide text is derived from it. [ ]: non-standard residue; d: D form. Aib = CC(C)(N)C(=O)O

Columns and labels:
[1] = system: adult male Sprague-Dawley rats; experiment: In vivo assay G.1/G.2: insulin secretion after iv glucose challenge following sc injection; set-up: species or system rat; conditions: clear solution pH 4.0 with zinc (Preparation D), sc 75 μg/kg, fasted rats, iv glucose 1 g/kg at 0.25-24 h
Protocol: The day prior to the experiment, adult male Sprague-Dawley rats (Taconic, Germantown, N.Y.) that weighed approximately 300-350g were implanted with a right atrial jugular cannula under chlorohydrate anesthetic. The rats were then fasted for 18 hours prior to the injection of the appropriate test composition or vehicle control at time 0. The rats continued to be fasted throughout the entire experiment.
At time zero the rats were injected subcutaneously (sc) either with (a) the compound of Example 1 (Aib^8,^35, Arg^26,^34, Phe^31)hGLP-1(7-36)NH2) at pH 4.0 as a clear solution (i.e., the solution of Preparation D.), or (b) the compound of Example 1 at pH 7.0 as a suspension or gel (i.e., the suspension or gel of Preparation E.). […] At the appropriate time after the sc injections a 500 μl blood sample was withdrawn via the intravenous (iv) cannula and the rats were given an iv glucose challenge to test for the presence of enhanced insulin secretion. The times of the glucose challenge were 0.25, 1, 6, 12 and 24 hours post-compound injection. After the initial blood sample was withdrawn glucose (1 g/kg) was injected iv and flushed in with 500 μl heparinized saline (10U/mL). […] The amount of insulin in each sample was determined using a rat insulin enzyme-linked immunosorbant assay (ELISA) kit (American Laboratory Products Co., Windham, N.H.). […]

[2] = Aqueous solubility of compound vs zinc concentration; assay type: physicochemical; conditions: aqueous saline, pH 7.0, room temperature
Protocol: Compounds that may advantageously be used to practice the invention can be and were tested to determine their solubility in pH 7 water at different zinc concentrations using the following procedure.
A stock zinc solution was prepared by dissolving ZnCl2 in de-ionized water to a concentration of 100 mg/ml and adjusting the pH to 2.7 using HCl. Solutions having various ZnCl2 concentrations (“Zn Test Solutions”) were prepared by making appropriate dilutions of the stock solution.
1 mg of the compound of Example 1 was dissolved in 250 μl of each Zn Test Solution to yield a solution having 4 mg/ml of the Example 1 compound. […] The precipitation solution was centrifuged and the mother liquor analyzed using HPLC. The UV absorption area of test compound peak was measured and the concentration of the test compound in the mother liquor was determined via comparison to a calibration curve.
As a representative example of a compound that may be used to practice the invention, the compound of Example 1 was tested in the immediately foregoing assay and the following results were obtained (aqueous saline, pH 7.0, room temperature): […]

| Compound | duration of sustained insulin-enhancing activity inducible by glucose injection [1] | solubility ([2]; pH 7, ZnCl2 concentration 0 μg/mL) | solubility ([2]; pH 7, ZnCl2 concentration 80 μg/mL) | solubility ([2]; pH 7, ZnCl2 concentration 500 μg/mL) | solubility ([2]; pH 7, ZnCl2 concentration 1000 μg/mL) | solubility ([2]; pH 7, ZnCl2 concentration 1500 μg/mL) | solubility ([2]; pH 7, ZnCl2 concentration 2500 μg/mL) |
| --- | --- | --- | --- | --- | --- | --- | --- |
| (Aib^8,35)hGLP1(7-36)NH2 | 24 h | – | – | – | – | – | – |
| CC[C@H](C)[C@H](NC(=O)[C@H](Cc1ccccc1)NC(=O)[C@H](CCC(=O)O)NC(=O)[C@H](CCCNC(=N)N)NC(=O)[C@H](C)NC(=O)[C@H](C)NC(=O)[C@H](CCC(N)=O)NC(=O)CNC(=O)[C@H](CCC(=O)O)NC(=O)[C@H](CC(C)C)NC(=O)[C@H](Cc1ccc(O)cc1)NC(=O)[C@H](CO)NC(=O)[C@H](CO)NC(=O)[C@@H](NC(=O)[C@H](CC(=O)O)NC(=O)[C@H](CO)NC(=O)[C@@H](NC(=O)[C@H](Cc1ccccc1)NC(=O)[C@@H](NC(=O)CNC(=O)[C@H](CCC(=O)O)NC(=O)C(C)(C)NC(=O)[C@@H](N)Cc1c[nH]cn1)[C@@H](C)O)[C@@H](C)O)C(C)C)C(=O)N[C@@H](C)C(=O)N[C@@H](Cc1ccccc1)C(=O)N[C@@H](CC(C)C)C(=O)N[C@H](C(=O)N[C@@H](CCCNC(=N)N)C(=O)NC(C)(C)C(=O)N[C@@H](CCCNC(=N)N)C(N)=O)C(C)C [Example 1, (Aib^8,^35, Arg^26,^34, Phe^31)hGLP-1(7-36)NH2] (H-H[Aib]EGTFTSDVSSYLEGQAAREFIAFLVR[Aib]R-NH2) | – | 53.9 µg/mL (≈ 16.1 µM) | 5.9 µg/mL (≈ 1.76 µM) | 5.6 µg/mL (≈ 1.67 µM) | 9.7 µg/mL (≈ 2.89 µM) | 9.7 µg/mL (≈ 2.89 µM) | 11 µg/mL (≈ 3.28 µM) |
